The values that follow come from patent publication US10131652B2, “Pyrimidinyloxy benzene derivatives as herbicides” (E. I. DU PONT DE NEMOURS AND COMPANY, priority 2014, dated 2018).

The melting point is the temperature of the solid-liquid transition.

The test system of data set [1] is monochoria (Monochoria vaginalis). As to the kind of experiment: Test G flooded paddy rice/weed plant response. The class given is in vivo. To be noted: Flood, 21 days, scale 0 to 100 (0 no effect, 100 complete control). The text has this:
(§1) Three plastic pots (ca. 16-cm diameter) per rate were partially filled with sterilized Tama silt loam soil comprising a 35:50:15 ratio of sand, silt and clay and 2.6% organic matter. Separate plantings for each of the three pots were as follows. Seeds from the U.S. of monochoria (Monochoria vaginalis), small-flower umbrella sedge (Cyperus difformis), hardstem bulrush (Scirpus juncoides), and redstem (purple redstem, Ammannia coccinea), were planted into one 16-cm pot for each rate. Seeds from the U.S. of rice flatsedge (Cyperus iria), bearded sprangletop (Leptochloa fascicularis), one stand of 9 or 10 water seeded rice seedlings (Indica rice, Oryza sativa), and two stands of 3 or 4 transplanted rice seedlings (Oryza sativa cv. ‘Japonica—M202’) were planted into one 16-cm pot for each rate. Seeds from the U.S. of bamyardgrass (Echinochloa crus-galli), and late watergrass (Echinochloa oryzicola) were planted into one 16-cm pot for each rate. Plantings were sequential so that crop and weed species were at the 2.0 to 2.5-leaf stage at time of treatment.
(§2) Potted plants were grown in a greenhouse with day/night temperature settings of 30/27° C., and supplemental balanced lighting was provided to maintain a 16-hour photoperiod. Test pots were maintained in the greenhouse until test completion.
(§3) At time of treatment, test pots were flooded to 3 cm above the soil surface, treated by application of test compounds directly to the paddy water, and then maintained at that water depth for the duration of the test. Effects of treatments on rice and weeds were visually evaluated by comparison to untreated controls after 21 days. Plant response ratings, summarized in Table G, are based on a scale of 0 to 100 where 0 is no effect and 100 is complete control. A dash (-) response means no test result.

Data set [2] concerns transplanted rice seedlings (Oryza sativa cv. ‘Japonica—M202’). As to the kind of experiment: Test G flooded paddy rice/weed plant response. The class given is in vivo. To be noted: Flood, 21 days, scale 0 to 100 (0 no effect, 100 complete control).
Text: as §1, §2, §3

The test system of data set [3] is hardstem bulrush (Scirpus juncoides). Nature of the data set: Test G flooded paddy rice/weed plant response. The class given is in vivo. To be noted: Flood, 21 days, scale 0 to 100 (0 no effect, 100 complete control).
Text: as §1, §2, §3

The test system of data set [4] is cocklebur (common cocklebur, Xanthium strumarium). As to the kind of experiment: Test F pre-/postemergence plant response. Type of data set: in vivo. To be noted: scale 0 to 100. An outline of the steps:
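Formulation: non-phytotoxic solvent mix + surfactant. Preemergence: applied to seeded silt loam. Postemergence: foliar, 1- to 4-leaf plants, 2–18 cm. Greenhouse hold 14–21 days; visual score vs controls, 0 = no effect, 100 = complete control; dash = not tested.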

As for `Fc1cccc(Oc2ncc(Cl)cn2)c1-c1cc(C(F)F)on1` [Compound 55, 5-chloro-2-[2-[5-(difluoromethyl)-3-isoxazolyl]-3-fluorophenoxy]pyrimidine], the “Plant response rating, Monochoria” value in data set [1] (32 g ai/ha), in data set [1] (64 g ai/ha), in data set [1] (125 g ai/ha) and in data set [1] (250 g ai/ha) was 100 each time. Further, the “Plant response rating, Rice, Transplanted” value in data set [2] (32 g ai/ha) worked out at 20; in data set [2] (64 g ai/ha) it was 60; in data set [2] (125 g ai/ha), 80; in data set [2] (250 g ai/ha), 100. The “Plant response rating, Bulrush, Hardstem” value in data set [3] (32 g ai/ha) turned out to be 80; in data set [3] (64 g ai/ha), 100; in data set [3] (125 g ai/ha) it was 100; in data set [3] (250 g ai/ha), 100.

Compound `FC(F)c1cc(-c2ccccc2Oc2ncc(Br)cn2)no1` [Compound 62, 5-bromo-2-[2-[5-(difluoromethyl)-3-isoxazolyl]phenoxy]pyrimidine] returned a melting point of 89 to 93 °C.

With `FC(F)c1cc(-c2ccccc2Oc2ncc(Cl)cn2)no1` [Compound 35, 5-chloro-2-[2-[5-(difluoromethyl)-3-isoxazolyl]phenoxy]pyrimidine], the “Plant response rating, Monochoria” value in data set [1] (32 g ai/ha) is 98; in data set [1] (64 g ai/ha), 100; in data set [1] (125 g ai/ha), 100; in data set [1] (250 g ai/ha), 100. In addition, the “Plant response rating, Rice, Transplanted” value in data set [2] (32 g ai/ha) is 15; in data set [2] (64 g ai/ha), 30; in data set [2] (125 g ai/ha), 45; in data set [2] (250 g ai/ha) it was 100. For the same compound, the “Plant response rating, Bulrush, Hardstem” value was 0 in data set [3] (32 g ai/ha), 95 in data set [3] (64 g ai/ha), 100 in data set [3] (125 g ai/ha) and 100 in data set [3] (250 g ai/ha). For the same compound, the “Plant response rating, Cocklebur” value in data set [4] (31 g ai/ha Preemergence) and in data set [4] (125 g ai/ha Preemergence) was 0 each time.
